Measurements as given in patent publication US5961892A, “Polyalkoxylated naphthopyrans” (PPG Industries Ohio, Inc., priority 1998, dated 1999).
Each block holds one compound with its values, some of them ahead of it.

Legend:
[1] = UV-Visible absorption (lambda max) of photochromic test square polymerizates in Varian Cary 3 UV-Visible spectrophotometer; format: physicochemical; settings: 1.5×10-3 molal; for (λ) max (VIS): maximum absorption of the activated (colored) form in the visible spectrum, test square; for (λ) max (UV): wavelength in the ultraviolet range closest to the visible spectrum at which absorption occurs, test square of BPA 2EO DMA/poly(ethylene glycol) 600 dimethacrylate
Experimental: (§1) Testing was done with the photochromic compounds described in Examples 1 through 4 and Comparative Examples 1 through 3 in the following manner. A quantity of photochromic compound calculated to yield a 1.5×10-3 molal solution was added to a flask containing 50 grams of a monomer blend of 4 parts ethoxylated bisphenol A dimethacrylate (BPA 2EO DMA), 1 part poly(ethylene glycol) 600 dimethacrylate, and 0.033 weight percent 2,2'-azobis(2-methyl propionitrile) (AIBN). The photochromic compound was dissolved into the monomer blend by stirring and gentle heating, if necessary. After a clear solution was obtained, it was poured into a flat sheet mold having the interior dimensions of 2.2 mm×6 inches (15.24 cm)×6 inches (15.24 cm). The mold was sealed and placed in a horizontal air flow, programmable oven programmed to increase the temperature from 40° C. to 95° C. over a 5 hour interval, hold the temperature at 95° C. for 3 hours, lower it to 60° C. over a 2 hour interval and then hold it at 60° C. for 16 hours. After the mold was opened, the polymer sheet was cut using a diamond blade saw into 2 inch (5.1 centimeters) test squares.
The ΔOD/Min, which represents the sensitivity of the photochromic compound's response to UV light, was measured over the first five (5) seconds of UV exposure, then expressed on a per minute basis. The saturation optical density (ΔOD@ Saturation) was taken under identical conditions as the ΔOD/Min, except UV exposure was continued for 15 minutes. The lambda max (Vis) is the wavelength in nanometers (nm) in the visible spectrum at which the maximum absorption of the activated (colored) form of the photochromic compound in a test square occurs. The lambda max (Vis) wavelength was determined by testing the photochromic test square polymerizates of Part A in a Varian Cary 3 UV-Visible spectrophotometer. The lambda (λ) max (UV) is the wavelength in nanometers in the ultraviolet range closest to the visible spectrum at which the absorption of the photochromic compound occurs. This absorption was also determined with the same spectrophotometer. The Bleach Rate (T 1/2) is the time interval in seconds for the absorbance of the activated form of the photochromic compound in the test squares to reach one half the highest absorbance at room temperature (72° F., 22.2° C.) after removal of the source of activating light.

[2] = Photochromic response of test squares on optical bench (sensitivity, saturation optical density, bleach rate); format: physicochemical; settings: for decrease in T 1/2 versus corresponding Comparative Example: % less than corresponding CE (Example 1 vs CE1; average of Examples 2 and 4 vs CE2; Example 3 vs CE3); for ΔOD@ Saturation: UV exposure continued for 15 minutes; for ΔOD@ Saturation / ΔOD/MIN Sensitivity: 72° F. (22.2° C.); for ΔOD/MIN Sensitivity: first five (5) seconds of UV exposure, expressed per minute, 0.15 to 0.20 mW/cm2; for Bleach Rate (T 1/2): time for absorbance of activated form to reach one half the highest absorbance at room temperature (72° F., 22.2° C.) after removal of activating light
Experimental: as §1
The photochromic test squares prepared in Part A were tested for photochromic response on an optical bench. Prior to testing on the optical bench, the photochromic test squares were conditioned, i.e., exposed to 365 nanometer ultraviolet light for about 15 minutes to activate the photochromic compounds and then placed in a 76° C. oven for about 15 minutes to bleach or inactivate the photochromic compounds. The test squares were then cooled to room temperature, exposed to fluorescent room lighting for at least 2 hours and then kept covered for at least 2 hours prior to testing on an optical bench maintained at 72° F. (22.2° C.). The bench was fitted with a 250 watt Xenon arc lamp, a remote controlled shutter, a copper sulfate bath acting as a heat sink for the arc lamp, a Schott WG-320 nm cut-off filter which removes short wavelength radiation; neutral density filter(s) and a sample holder in which the square to be tested was inserted. The power output of the optical bench, i.e., the dosage of light that the sample lens would be exposed to, was calibrated with a photochromic test square used as a reference standard. […] The UV-A detector was placed into the sample holder and the light output was measured. Adjustments to the power output were made by increasing or decreasing the lamp wattage or by adding or removing neutral density filters in the light path.
A monitoring, collimated beam of light from a tungsten lamp was passed through the square at a small angle (approximately 30°) normal to the square. After passing through the square, the light from the tungsten lamp was directed to a detector through Spectral Energy Corp. GM-200 monochromator set at the previously determined visible lambda max of the photochromic compound being measured. The output signals from the detector were processed by a radiometer.
Change in optical density (ΔOD) was determined by inserting a test square in the bleached state into the sample holder, adjusting the transmittance scale to 100%, opening the shutter from the Xenon lamp to provide ultraviolet radiation to change the test square from the bleached state to an activated (i.e., darkened) state, measuring the transmittance in the activated state, and calculating the change in optical density according to the formula: ΔOD=log(100/% Ta), where % Ta is the percent transmittance in the activated state and the logarithm is to the base 10.
The ΔOD/Min, which represents the sensitivity of the photochromic compound's response to UV light, was measured over the first five (5) seconds of UV exposure, then expressed on a per minute basis. The saturation optical density (ΔOD@ Saturation) was taken under identical conditions as the ΔOD/Min, except UV exposure was continued for 15 minutes. […]

Compound: 2,2-bis(4-methoxyphenyl)-5-methoxycarbonyl-6-methoxy(polyethoxy)-2H-naphtho[1,2-b]pyran [Example 1]
- (λ) max (VIS) [1]: 511 nm
- (λ) max (UV) [1]: 353 nm
- decrease in T 1/2 versus corresponding Comparative Example [2]: 24%
- Sensitivity, units less than corresponding Comparative Example ([2]; Example 1 versus Comparative Example 1): more than 0.02 units
- ΔOD@ Saturation [2]: 0.48
- ΔOD/MIN Sensitivity [2]: 0.19 ΔOD/MIN
- Bleach Rate (T 1/2) [2]: 1.72 min

Compound: COCCOCCOC(=O)c1c2c(c3ccccc3c1-c1ccccc1)OC(c1ccccc1)(c1ccccc1)C=C2 [Example 2, 2,2-diphenyl-5-(2-(2-methoxyethoxy)ethoxycarbonyl)-6-phenyl[2H]naphtho[1,2-b]pyran]
- (λ) max (VIS) [1]: 486 nm
- (λ) max (UV) [1]: 348 nm
- ΔOD@ Saturation [2]: 0.67
- ΔOD/MIN Sensitivity [2]: 0.26 ΔOD/MIN
- Bleach Rate (T 1/2) [2]: 2.78 min

Compound: COCCOCCOCCOC(=O)c1c2c(c3ccccc3c1C)OC(c1ccccc1)(c1ccccc1)C=C2 [Example 3, 2,2-diphenyl-5-(2-(2-(2-methoxyethoxy)ethoxy)ethoxycarbonyl)-6-methyl-2H-naphtho[1,2b]pyran]
- (λ) max (VIS) [1]: 475 nm
- (λ) max (UV) [1]: 349 nm
- decrease in T 1/2 versus corresponding Comparative Example [2]: 42%
- ΔOD@ Saturation [2]: 0.86
- ΔOD/MIN Sensitivity [2]: 0.24 ΔOD/MIN
- Bleach Rate (T 1/2) [2]: 4.5 min

Compound: COCCOCCOCCOC(=O)c1c2c(c3ccccc3c1-c1ccccc1)OC(c1ccccc1)(c1ccccc1)C=C2 [Example 4, 2,2-diphenyl-5-(2-(2-(2-methoxyethoxy)ethoxy)ethoxy-carbonyl)-6-phenyl-2H-naphtho[1,2-b]pyran]
- (λ) max (VIS) [1]: 486 nm
- (λ) max (UV) [1]: 348 nm
- ΔOD@ Saturation [2]: 0.67
- ΔOD/MIN Sensitivity [2]: 0.28 ΔOD/MIN
- Bleach Rate (T 1/2) [2]: 2.75 min

The next lines start with the values.

- (λ) max (VIS) [1]: 512 nm
- (λ) max (UV) [1]: 353 nm
- ΔOD@ Saturation [2]: 0.77
- ΔOD/MIN Sensitivity [2]: 0.29 ΔOD/MIN
- Bleach Rate (T 1/2) [2]: 2.27 min
Compound: COC(=O)c1c2c(c3ccccc3c1OC)OC(c1ccc(OC)cc1)(c1ccc(OC)cc1)C=C2 [CE1, 2,2-bis(4-methoxyphenyl)-5-methoxycarbonyl-6-methoxy-2H-naphtho[1,2-b]pyran, reference compound]

- (λ) max (VIS) [1]: 486 nm
- (λ) max (UV) [1]: 348 nm
- ΔOD@ Saturation [2]: 0.80
- ΔOD/MIN Sensitivity [2]: 0.28 ΔOD/MIN
- Bleach Rate (T 1/2) [2]: 3.83 min
Compound: COC(=O)c1c2c(c3ccccc3c1-c1ccccc1)OC(c1ccccc1)(c1ccccc1)C=C2 [CE2, 2,2-diphenyl-5-methoxycarbonyl-6-phenyl-2H-naphtho[1,2-b]pyran, reference compound]

- (λ) max (VIS) [1]: 476 nm
- (λ) max (UV) [1]: 349 nm
- ΔOD@ Saturation [2]: 1.17
- ΔOD/MIN Sensitivity [2]: 0.23 ΔOD/MIN
- Bleach Rate (T 1/2) [2]: 7.75 min
Compound: COC(=O)c1c2c(c3ccccc3c1C)OC(c1ccccc1)(c1ccccc1)C=C2 [CE3, 2,2-diphenyl-5-methoxycarbonyl-6-methyl-2H-naphtho[1,2b]pyran, reference compound]
